Test results published in patent US10758499B2, “Dermatitis treatment” (Avexxin AS, priority 2012, dated 2020).

Tests used:
[1] = system: oxazolone-induced delayed-type-hypersensitivity (DTH) responses; assay: oxazolone-induced ear edema model (delayed-type-hypersensitivity) in mice, therapeutic topical treatment; format: in vivo, mice (female BALB/c); conditions: for Relative oxazolone specific ear swelling, average: topical 1 h and 7 h after challenge, 24 h after challenge, placebo 95%; for Absolute oxazolone specific ear swelling, average: topical on right ear 1 h and 7 h after challenge, measured 24 h after challenge, placebo 217 μm
Description: DTH can be induced by skin sensitization with oxazolone, followed by a topical ear challenge with oxazolone 7 days later. This challenge results in development of an inflammatory response in the ear within 24 hours, which is dependent on antigen-specific T cells. The DTH reaction is associated with the recruitment of a variety of inflammatory cells and development of edema. The latter can be measured by quantifying changes in ear thickness before and after ear challenge. The oxazolone-induced ear edema model in mice is therefore a model of delayed contact hypersensitivity that permits the quantitative evaluation of the topical and systemic anti-inflammatory activity of a compound following topical administration. Female mice (6-8 wks—BALB/c) were acclimatization for 7 days in 12 hours light/12 hours dark cycle, at Temperature: 20-24° C., humidity: 55%±10%, on a standard laboratory mouse diet. Day 0: Mice were anesthetized by inhalation of 3-4% isoflurane in a 1:1 mixture of oxygen and medical air. The abdominal skin was shaved to enable topical application of 100 μl 1.5% (w/v) oxazolone in 100% acetone. Day 7: All ears were wiped with ethanol to optimize exposure to oxazolone. Subsequently, the right ear of the sensitized animals were challenged by topical administration of 20 μl (10 μl on each side of the ear) 2.5% (w/v) oxazolone in 100% ethanol. The left ears were treated with 20 μl 100% ethanol. Day 8: After 24 hours, mice were sacrificed and the right ears were collected to enable analysis by (immuno)-histochemistry and/or histology. The vehicle used to carry AVX001 was paraffin. The placebo was paraffin. Approx 20 μl (10 μl on each side of the right ear) of composition is applied to effect the test. 4 groups (8 mice per group) were studied. Group 1: Placebo, 1 hour and 7 hours after challenge Group 2: Compound 0.2 wt %, 1 hour and 7 hours after challenge Group 3: Compound 0.05 wt %, 1 hour and 7 hours after challenge Group 4: Compound 0.01 wt %, 1 hour and 7 hours after challenge Day 7: Ear thickness of both ears was measured directly before the ear-challenge (5 measurements per ear) using a Mitutoyo micrometer (accuracy 0.01 mm). Day 8: 24 Hours after challenge, thickness of left and right ears was measured again. The increase in ear thickness of each ear was calculated by subtracting the mean ear thickness measured on day 7 (before challenge) from the thickness on day 8 (24 hrs after challenge). To determine the oxazolone specific increase in ear thickness, the calculated increase in ear thickness of the left ear was subtracted from that of the right ear. Both absolute (Delta μm) and relative (%) increases in ear thickness were calculated. Increase in ear thickness (Delta μm): Thickness day 8 (μm)−Thickness day 7 (μm) Oxazolone specific increase (Delta μm): Increase right ear (Delta μm)−Increase left ear (Delta μm) Relative increase in ear thickness (%): (Increase in ear thickness (Delta μm)/Thickness day 7 (μm))*100% Relative oxazolone specific increase in ear thickness (%): Relative increase right ear (%)−Relative increase left ear (%) Data of groups was examined by one-way analysis of variance, and individual groups were then compared with Dunnets test or Students t-test. Data was given as mean±SD, if not stated otherwise. Values of p<0.05 were considered significant.

[2] = biological target: T1, group IVa PLA2 enzyme (Mus musculus, UniProt P47713); assay: PGE2 EIA analysis of ear tissue homogenates after treatment; format: in vivo, mice; conditions: treated versus paraffin placebo ear tissue, right ear biopsies
T1 construct: the right ear biopsies were homogenized in 400 μl lysisbuffer; from tissue; host or cells: mouse ear tissue (in vivo treatment, ear biopsies homogenised)
T1 sequence (P47713 1-748): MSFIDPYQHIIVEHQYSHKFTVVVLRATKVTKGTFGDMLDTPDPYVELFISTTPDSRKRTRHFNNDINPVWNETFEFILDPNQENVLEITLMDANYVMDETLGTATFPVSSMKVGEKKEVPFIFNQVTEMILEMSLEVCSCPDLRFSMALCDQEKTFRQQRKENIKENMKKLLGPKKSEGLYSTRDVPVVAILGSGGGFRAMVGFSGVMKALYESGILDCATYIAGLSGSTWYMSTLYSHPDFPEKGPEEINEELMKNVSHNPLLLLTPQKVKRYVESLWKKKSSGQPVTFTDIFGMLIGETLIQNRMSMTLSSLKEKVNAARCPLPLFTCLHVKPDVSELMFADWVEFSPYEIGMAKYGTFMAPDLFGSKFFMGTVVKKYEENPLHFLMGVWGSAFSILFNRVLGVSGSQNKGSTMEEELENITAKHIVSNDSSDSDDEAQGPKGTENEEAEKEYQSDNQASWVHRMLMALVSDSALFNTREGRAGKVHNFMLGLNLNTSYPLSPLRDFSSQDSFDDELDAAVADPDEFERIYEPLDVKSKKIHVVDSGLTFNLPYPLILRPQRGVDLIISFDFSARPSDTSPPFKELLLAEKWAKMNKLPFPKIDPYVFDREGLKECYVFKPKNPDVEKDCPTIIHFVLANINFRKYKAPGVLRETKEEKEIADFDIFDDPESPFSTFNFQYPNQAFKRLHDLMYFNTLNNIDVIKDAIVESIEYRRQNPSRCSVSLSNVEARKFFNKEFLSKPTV
Description: Using a PreCellys homogenisator, the right ear biopsies were homogenized in 400 μl lysisbuffer containing 10 μM indomethasin. The lysate was stored at −80° C. until further processing. PGE2 EIA analysis ear homogenates was performed according to kit protocol (Cayman Chemicals). Plasma samples were diluted 1:60 and 1:180 in EIA buffer. The samples were hybridized over-night (18 hrs, 4° C.). The EIA plates were read using a Multiscan plate reader (Ascent Labsystems, OD550 nm). Ascent software for Multiscan, Version 2.4.1 was used to obtain the data. PGE2 results are shown as mean±SD relative to the paraffin-treated placebo mice (n=5 mice).
Data of groups was examined by one-way analysis of variance, and individual groups were then compared with Dunnets test or Students t-test. Data was given as mean±SD, if not stated otherwise. Values of p<0.05 were considered significant.

SMILES: CC/C=C\C/C=C\C/C=C\C/C=C\CC/C=C/CSCC(=O)C(F)(F)F [AVX001]
- Relative oxazolone specific ear swelling, average ([1]; AVX001 0.01% in paraffin): 58%
- Absolute oxazolone specific ear swelling, average ([1]; AVX001 0.01% in paraffin): 134 μm
- Relative oxazolone specific ear swelling, average ([1]; AVX001 0.05% in paraffin): 43%
- Absolute oxazolone specific ear swelling, average ([1]; AVX001 0.05% in paraffin): 103 μm
- Relative oxazolone specific ear swelling, average ([1]; AVX001 0.2% in paraffin): 42%
- Absolute oxazolone specific ear swelling, average ([1]; AVX001 0.2% in paraffin): 94 μm
- reduction of the oxazolone specific ear swelling (result in words) ([1]; all concentrations (0.01%, 0.05%, 0.2%), topical, versus placebo): statistically significant for all concentrations
- reduction in ear tissue PGE2 concentration [2]: 20%
